Assay results as given in ChEMBL document CHEMBL6103648, “AI-Driven Discovery of Highly Specific and Efficacious hCES2A Inhibitors for Ameliorating Irinotecan-Triggered Gut Toxicity” (J Med Chem, 2025).
pIC50: −log10 of the molar value.

Assay: Inhibition of human CES2A using fluorescein diacetate as substrate preincubated for 3 mins followed by substrate addition measured after 30 mins by fluorescence based assay

Structure (SMILES)	pIC50
CCN(C)C(=O)Oc1ccc(CCC(=O)N2CCC(c3ccccc3)CC2)cc1OC	8.31
CCN(C)C(=O)Oc1ccc(C(=O)N2CCC(c3ccccc3)CC2)cc1OC	8.83
COc1cc(CCC(=O)N2CCC(Cc3ccccc3)CC2)ccc1OC(=O)N(C)C	8.39
CCN(C)C(=O)Oc1ccc(C(=O)N2CCC(Cc3ccc(F)cc3)CC2)cc1OC	8.88
CCN(C)C(=O)Oc1ccc(C(=O)N2CCN(Cc3ccccc3)CC2)cc1OC	8.23
CCN(C)C(=O)Oc1ccc(C(=O)N2CCc3ccccc3C2)cc1OC	8.69
CCN(C)C(=O)Oc1ccc(C(=O)N2CCC(C(=O)c3ccc(F)cc3)CC2)cc1OC	7.99
CCN(C)C(=O)Oc1ccc(CCC(=O)N2CCc3ccccc3C2)cc1	8.13
CCN(CC)C(=O)Oc1ccc(CCC(=O)N2CCC(Cc3ccccc3)CC2)cc1OC	7.47
CCN(C)C(=O)Oc1ccc(CCC(=O)N2CCC(Cc3ccccc3)CC2)cc1OC	8.48
CCN(C)C(=O)Oc1ccc(C(=O)N2CCC(Cc3ccccc3)CC2)cc1OCC1CC1	8.99
CNC(=O)COc1ccc(C(C)=O)cc1OC	6.34
CCN(CC)C(=O)COc1ccc(C(C)=O)cc1OC	6.34
CCOc1cc(C(=O)N2CCC(Cc3ccccc3)CC2)ccc1OC(=O)N(C)CC	8.95
CCN(C)C(=O)Oc1ccc(CCC(=O)N2CCc3ccccc3C2)cc1OC	8.22
COc1cc(CCC(=O)N2CCC(Cc3ccccc3)CC2)ccc1OC(=O)N1CCOCC1	8.14
CN(C)C(=O)C(CCN1CCC(O)(c2ccc(Cl)cc2)CC1)(c1ccccc1)c1ccccc1 [LOPERAMIDE]	6.39
CCN(C)C(=O)Oc1ccc(/C=C/C(=O)N2CCC(c3ccccc3)CC2)cc1OC	8.50
CCN(C)C(=O)Oc1ccc(/C=C/C(=O)N2CCC(Cc3ccccc3)CC2)cc1	8.84
CCN(C)C(=O)Oc1ccc(CCC(=O)N2CCN(Cc3ccccc3)CC2)cc1OC	7.24
CCN(C)C(=O)Oc1ccc(C(=O)N2CCC(CCCc3ccccc3)CC2)cc1OC	8.53
